# Assay results published in PubChem BioAssay AID2060912 (Molecular Pharmacology Branch, DTP, NCI, 2025).
# System: HUVEC/MSC spheroids viability
# Experiment: Human HUVEC/MSC cell line growth inhibition [KRAS2];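 as to viability, T/C: percent of DMSO vehicle control luminescence so 100% = untreated viability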
# Conditions: for IC50: curve of first compound; for viability, T/C: stronger effect = lower value
# Summary of the method: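 Endothelial cells (HUVEC) plus mesenchymal stem cells, cultured at 37 °C/5% CO2 and assembled into spheroids without cancer cells, served as a stromal control. Drug pairs and single agents spanned half-log ranges anchored to clinical Cmax.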
# [1] = second compound 0.0316 µM, first compound 0.00949 µM
# [2] = second compound 0.0316 µM, first compound 0.03 µM
# [3] = second compound 0.1 µM, first compound 0.00949 µM
# [4] = second compound 0.1 µM, first compound 0.03 µM
# [5] = second compound 0.316 µM, first compound 0.00949 µM
# [6] = second compound 0.316 µM, first compound 0.03 µM
# [7] = second compound 1 µM, first compound 0.00949 µM
# [8] = second compound 1 µM, first compound 0.03 µM
# [9] = second compound 3.16 µM, first compound 0.00949 µM
# [10] = second compound 3.16 µM, first compound 0.03 µM
# [11] = second compound 10 µM, first compound 0.00949 µM
# [12] = second compound 10 µM, first compound 0.03 µM
smiles,measurement,setting,value
CC1COCCN1c1cc(-c2ccnn2C)c2ccnc(-c3ccn[nH]3)c2n1 (centres undefined) + CNCc1ccccc1-c1csc(C(C)Nc2nc(C)nc3cc(OC)c(OC)cc23)c1,IC50,second compound 0.0316 µM,1610 nM
same,IC50,second compound 0.1 µM,3000 nM
same,IC50,second compound 0.316 µM,1770 nM
same,IC50,second compound 1 µM,1260 nM
same,IC50,second compound 3.16 µM,> 3000 nM
same,IC50,second compound 10 µM,< 9.49 nM
same,"viability, T/C",[1],102%
same,"viability, T/C",[2],96.5%
same,"viability, T/C","second compound 0.0316 µM, first compound 0.0949 µM",87%
same,"viability, T/C","second compound 0.0316 µM, first compound 0.3 µM",74.9%
same,"viability, T/C","second compound 0.0316 µM, first compound 0.949 µM",54.1%
same,"viability, T/C","second compound 0.0316 µM, first compound 3 µM",43.8%
same,"viability, T/C",[3],88.4%
same,"viability, T/C",[4],98.8%
same,"viability, T/C","second compound 0.1 µM, first compound 0.0949 µM",105%
same,"viability, T/C","second compound 0.1 µM, first compound 0.3 µM",78.2%
same,"viability, T/C","second compound 0.1 µM, first compound 0.949 µM",63.1%
same,"viability, T/C","second compound 0.1 µM, first compound 3 µM",48.3%
same,"viability, T/C",[5],97.5%
same,"viability, T/C",[6],95.1%
same,"viability, T/C","second compound 0.316 µM, first compound 0.0949 µM",74%
same,"viability, T/C","second compound 0.316 µM, first compound 0.3 µM",66.7%
same,"viability, T/C","second compound 0.316 µM, first compound 0.949 µM",60.4%
same,"viability, T/C","second compound 0.316 µM, first compound 3 µM",42.8%
same,"viability, T/C",[7],85.8%
same,"viability, T/C",[8],78%
same,"viability, T/C","second compound 1 µM, first compound 0.0949 µM",70.6%
same,"viability, T/C","second compound 1 µM, first compound 0.3 µM",67.1%
same,"viability, T/C","second compound 1 µM, first compound 0.949 µM",54.8%
same,"viability, T/C","second compound 1 µM, first compound 3 µM",37.7%
same,"viability, T/C",[9],94%
same,"viability, T/C",[10],101%
same,"viability, T/C","second compound 3.16 µM, first compound 0.0949 µM",92.6%
same,"viability, T/C","second compound 3.16 µM, first compound 0.3 µM",81.8%
same,"viability, T/C","second compound 3.16 µM, first compound 0.949 µM",80.1%
same,"viability, T/C","second compound 3.16 µM, first compound 3 µM",67.6%
same,"viability, T/C",[11],0.34%
same,"viability, T/C",[12],0.43%
same,"viability, T/C","second compound 10 µM, first compound 0.0949 µM",0.45%
same,"viability, T/C","second compound 10 µM, first compound 0.3 µM",0.45%
same,"viability, T/C","second compound 10 µM, first compound 0.949 µM",0.4%
same,"viability, T/C","second compound 10 µM, first compound 3 µM",0.37%
CC(=O)Nc1cccc(-n2c(=O)n(C3CC3)c(=O)c3c(Nc4ccc(I)cc4F)n(C)c(=O)c(C)c32)c1 + CC1OCC2(CCN(c3cnc(Sc4ccnc(N)c4Cl)c(N)n3)CC2)C1N,IC50,second compound 0.0316 µM,18.1 nM
same,IC50,second compound 0.1 µM,15.9 nM
same,IC50,second compound 0.316 µM,16.2 nM
same,IC50,second compound 1 µM,5.18 nM
same,IC50,second compound 3.16 µM,1.27 nM
same,IC50,second compound 10 µM,< 0.0949 nM
same,"viability, T/C","second compound 0.0316 µM, first compound 94.9 pM",110%
same,"viability, T/C","second compound 0.0316 µM, first compound 0.0003 µM",142%
same,"viability, T/C","second compound 0.0316 µM, first compound 0.000949 µM",113%
same,"viability, T/C","second compound 0.0316 µM, first compound 0.003 µM",118%
same,"viability, T/C",[1],82.6%
same,"viability, T/C",[2],24.4%
same,"viability, T/C","second compound 0.1 µM, first compound 94.9 pM",118%
same,"viability, T/C","second compound 0.1 µM, first compound 0.0003 µM",106%
same,"viability, T/C","second compound 0.1 µM, first compound 0.000949 µM",104%
same,"viability, T/C","second compound 0.1 µM, first compound 0.003 µM",89.2%
same,"viability, T/C",[3],77.5%
same,"viability, T/C",[4],21.9%
same,"viability, T/C","second compound 0.316 µM, first compound 94.9 pM",92.7%
same,"viability, T/C","second compound 0.316 µM, first compound 0.0003 µM",95.2%
same,"viability, T/C","second compound 0.316 µM, first compound 0.000949 µM",87.9%
same,"viability, T/C","second compound 0.316 µM, first compound 0.003 µM",81.8%
same,"viability, T/C",[5],74.5%
same,"viability, T/C",[6],24.3%
same,"viability, T/C","second compound 1 µM, first compound 94.9 pM",85.6%
same,"viability, T/C","second compound 1 µM, first compound 0.0003 µM",75.1%
same,"viability, T/C","second compound 1 µM, first compound 0.000949 µM",69.1%
same,"viability, T/C","second compound 1 µM, first compound 0.003 µM",55.7%
same,"viability, T/C",[7],46%
same,"viability, T/C",[8],10.9%
same,"viability, T/C","second compound 3.16 µM, first compound 94.9 pM",71.2%
same,"viability, T/C","second compound 3.16 µM, first compound 0.0003 µM",69.5%
same,"viability, T/C","second compound 3.16 µM, first compound 0.000949 µM",49.7%
same,"viability, T/C","second compound 3.16 µM, first compound 0.003 µM",39.9%
same,"viability, T/C",[9],22.7%
same,"viability, T/C",[10],3.47%
same,"viability, T/C","second compound 10 µM, first compound 94.9 pM",48.7%
same,"viability, T/C","second compound 10 µM, first compound 0.0003 µM",39%
same,"viability, T/C","second compound 10 µM, first compound 0.000949 µM",33.3%
same,"viability, T/C","second compound 10 µM, first compound 0.003 µM",12.5%
same,"viability, T/C",[11],5.14%
same,"viability, T/C",[12],0.77%
